Assay results reported in patent US20100041597A1, “PEPTIDES TARGETED TO PROTEIN KINASE C ISOFORMS AND USES THEREOF” (priority 2005, published 2010).
Where two headings read alike, the source gives them in different places.

What was measured:
PKC-β = assay: In vitro competition with anti-PKC-β antibody, Protocol B, IMR-32 cells; assay type: binding, human; settings: PKC-β, IMR-32, Table 8
Method: The ability of the peptides PRE 2 and PRE 3 (see Table 3) to interfere with the binding of a PKC-α-specific polyclonal antibody (Santa Cruz Biotechnology, Inc.) to PKC-α was determined using a modified version of the protocol outlined above in which the test peptide was added directly to the cell extract prior to electrophoresis at a concentration of either 5× or 15× the concentration of the protein applied to each well of the gel for the Western blots (20 μg).
Peptides PRE 2 and PRE 3 (see Table 3) were tested for their ability to interfere with the binding of a PKC-β-specific polyclonal antibody (Santa Cruz Biotechnology, Inc.) to PKC-β using the general protocol described in Example 3.

PKC-βII = PKC-βII (Homo sapiens, UniProt P05771); assay: In vitro competition with anti-PKC-βII antibody, Protocol B, IMR-32 cells; assay type: binding; parameters: PRE 3 and PRE 4 in IMR-32 Neuroblastoma Cells: Protocol B; endogenous in cells; host or cells: IMR-32; settings: for inhibition at 0.1 mg / remaining activity at 0.1 mg / Band Intensity / inhibition at 0.2 mg / remaining activity at 0.2 mg / inhibition at 0.3 mg / remaining activity at 0.3 mg: PKC-βII; for inhibition at 0.1 mg / inhibition at 0.2 mg / inhibition at 0.3 mg: Table 9; for remaining activity at 0.1 mg / remaining activity at 0.2 mg / remaining activity at 0.3 mg: Table 9, read-out: Relative Intensity (%); for Band Intensity: control band intensity 98.6, Table 9
Sequence of PKC-βII (P05771 1-673 isoform P05771-2): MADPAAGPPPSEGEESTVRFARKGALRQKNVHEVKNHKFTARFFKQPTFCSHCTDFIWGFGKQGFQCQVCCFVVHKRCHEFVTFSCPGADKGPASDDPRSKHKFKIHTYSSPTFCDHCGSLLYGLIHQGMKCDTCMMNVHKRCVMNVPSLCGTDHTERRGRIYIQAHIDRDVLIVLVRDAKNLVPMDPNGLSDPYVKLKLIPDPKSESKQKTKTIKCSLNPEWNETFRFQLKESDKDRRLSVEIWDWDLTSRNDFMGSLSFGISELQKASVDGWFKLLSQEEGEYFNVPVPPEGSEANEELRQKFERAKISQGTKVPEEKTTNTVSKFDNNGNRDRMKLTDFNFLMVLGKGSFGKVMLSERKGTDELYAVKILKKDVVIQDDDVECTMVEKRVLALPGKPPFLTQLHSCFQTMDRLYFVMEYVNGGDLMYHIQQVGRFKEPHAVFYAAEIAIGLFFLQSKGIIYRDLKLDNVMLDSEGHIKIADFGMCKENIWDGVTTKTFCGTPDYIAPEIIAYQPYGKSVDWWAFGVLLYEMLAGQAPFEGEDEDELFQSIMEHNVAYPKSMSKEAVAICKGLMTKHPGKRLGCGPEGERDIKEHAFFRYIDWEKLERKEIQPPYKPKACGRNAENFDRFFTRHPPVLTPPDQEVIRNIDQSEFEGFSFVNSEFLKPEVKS
Method: (§1) Peptides PRE 3 and PRE 4 (see Table 3) were tested for their ability to interfere with the binding of isoform-specific polyclonal antibodies (Santa Cruz Biotechnology, Inc.) to PKC-α, PKC-βI or PKC-βII using the general protocol described in Example 3.

PKC-α [1] = molecular target: T1, PKC-α (Homo sapiens, UniProt P17252); assay: In vitro competition with anti-PKC-α antibody, Protocol B (peptide added to cell extract before electrophoresis), IMR-32 cells; assay type: binding; parameters: subcellular localisation of endogenous PKC-α in IMR-32 cells; endogenous in cells; host or cells: IMR-32; settings: for Band Intensity / inhibition at 0.1 mg / remaining activity at 0.1 mg / Inhibition (%) / Relative Intensity (%) / inhibition at 0.2 mg / remaining activity at 0.2 mg / inhibition at 0.3 mg / remaining activity at 0.3 mg: PKC-α
Method: as §1

PKC-α [2] = molecular target: T1, PKC-α; assay: Antibody competitive binding assay with fluorescent antibody (FIG. 4); settings: PRE at 20× concentration
Method: (§2) FIG. 4 presents data from conventional antibody competitive binding assays using PKC-α versus a representative battery of PKC isoforms (commercially available). PKC isoforms representing the three subgroups of the PKC family were assessed (classical PKCs=PKCalpha; novel PKCs=PKCdelta and epsilon; atypical PKCs=PKCzeta). Controls received the appropriate PKC isoform fluorescent antibody. Treated samples received the PRE sequence from PhGα1 (20× concentration) and the same PKC antibody. Specific affinity to PKC-α in the treated sample by the PRE will therefore decrease the amount of binding by the fluorescent antibody, represented by a decrease in fluorescent intensity in the treated sample.

PKCepsilon = molecular target: T2, PKCepsilon (Homo sapiens, UniProt Q02156); assay: as above; settings: PRE at 20× concentration
T2 construct: purchased
T2 sequence (Q02156 1-737): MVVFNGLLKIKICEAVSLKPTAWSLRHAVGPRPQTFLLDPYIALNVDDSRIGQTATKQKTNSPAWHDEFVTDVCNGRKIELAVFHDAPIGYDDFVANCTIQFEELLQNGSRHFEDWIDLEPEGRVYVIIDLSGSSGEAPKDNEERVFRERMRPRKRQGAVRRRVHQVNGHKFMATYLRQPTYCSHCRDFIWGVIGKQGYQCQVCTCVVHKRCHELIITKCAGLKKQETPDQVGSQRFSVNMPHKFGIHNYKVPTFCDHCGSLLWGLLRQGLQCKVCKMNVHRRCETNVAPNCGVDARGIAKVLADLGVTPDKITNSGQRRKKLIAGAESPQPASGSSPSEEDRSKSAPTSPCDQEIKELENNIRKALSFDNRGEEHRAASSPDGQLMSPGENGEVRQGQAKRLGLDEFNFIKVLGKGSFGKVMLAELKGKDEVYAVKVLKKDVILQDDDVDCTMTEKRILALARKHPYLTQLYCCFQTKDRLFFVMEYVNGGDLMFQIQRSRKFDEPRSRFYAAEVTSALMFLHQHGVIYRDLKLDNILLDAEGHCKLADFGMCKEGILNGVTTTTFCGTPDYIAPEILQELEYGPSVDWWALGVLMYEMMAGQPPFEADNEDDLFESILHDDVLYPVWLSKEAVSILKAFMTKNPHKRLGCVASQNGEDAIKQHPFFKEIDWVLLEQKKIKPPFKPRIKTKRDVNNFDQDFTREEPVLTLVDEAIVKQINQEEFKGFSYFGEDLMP
Method: as §2

PKC-α [3] = molecular target: T1, PKC-α; assay: Kinase-Glo Luminescent Kinase Assay, substrate myelin basic protein; assay type: biochemical; settings: for inhibition at 150 µM: PRE 4 150 μM; for inhibition at 300 µM: PRE 4 300 μM; for inhibition at 600 µM: PRE 4 600 μM
Method: The ability of peptide PRE 4 (see Table 3) to inhibit the activity of PKC-α was tested using increasing concentrations of PRE 4 and the Kinase-Glo™ Luminescent Kinase Assay (Promega, Cat # V6712/3/4) following the manufacturer's instructions. Briefly, the assay is based on the Luciferase luminescent reaction with ATP. The substrate was myelin basic protein (MBP, a classical substrate of the PKC family). ATP was added to the PKC-α reaction solution at a given concentration and the remaining ATP was measured by luminescence. Luminescence of blank solutions, ATP provided at the beginning of the reaction and PKC-α activity in the presence or absence of PRE 4 were measured.
Blanks are subtracted from all values.
ATP remaining in all reactions was subtracted from the ATP values at the start=relative enzyme activity (Ea).
The relative activities were all measured and the Ea in the presence of PRE 4 are reported relative to the Ea of PKC-α alone taken as 100. The difference between 100 and the % Ea of PKC-α exposed to PRE 4 represents the relative level of inhibition.

[4] = 100 μg, control band intensity 302.5, Table 9
[5] = 200 μg, control band intensity 302.5, Table 9
[6] = 300 μg, control band intensity 302.5, Table 9

Substance: Ac-AKGIQEVKGGDAQNLIGISI-NH2 [PRE 3]
- Band Intensity (PKC-β; 100 μg): 0.0
- Inhibition (%) (PKC-β; 100 μg): 100.0%
- Relative Intensity (%) (PKC-β; 100 μg): 0.0%
- Band Intensity (PKC-β; 200 μg): 0.0
- Inhibition (%) (PKC-β; 200 μg): 100.0%
- Relative Intensity (%) (PKC-β; 200 μg): 0.0%
- Band Intensity (PKC-β; 300 μg): 0.0
- Inhibition (%) (PKC-β; 300 μg): 100.0%
- Relative Intensity (%) (PKC-β; 300 μg): 0.0%
- inhibition at 0.1 mg (PKC-βII; 100 μg): 100%
- remaining activity at 0.1 mg (PKC-βII; 100 μg): 0%
- Band Intensity (PKC-βII; 100 μg): 0.0
- inhibition at 0.2 mg (PKC-βII; 200 μg): 100%
- remaining activity at 0.2 mg (PKC-βII; 200 μg): 0%
- Band Intensity (PKC-βII; 200 μg): 0.0
- inhibition at 0.3 mg (PKC-βII; 300 μg): 100%
- remaining activity at 0.3 mg (PKC-βII; 300 μg): 0%
- Band Intensity (PKC-βII; 300 μg): 0.0
- effect on antibody binding to PKC-α (PKC-α [1]): effectively interfered with PKC-α antibody binding to PKC-α
- Band Intensity (PKC-α [1]; 100 μg, IMR-32, Table 7): 0.0
- inhibition at 0.1 mg (PKC-α [1]; 100 μg, IMR-32, Table 7): 100%
- remaining activity at 0.1 mg (PKC-α [1]; 100 μg, IMR-32, Table 7, read-out: Relative Intensity (%)): 0%
- Inhibition (%) (PKC-α [1]; 100 μg, Table 9): 100.0%
- Relative Intensity (%) (PKC-α [1]; 100 μg, Table 9): 0.0%
- Band Intensity (PKC-α [1]; [4]): 0.0
- Band Intensity (PKC-α [1]; 200 μg, IMR-32, Table 7): 0.0
- inhibition at 0.2 mg (PKC-α [1]; 200 μg, IMR-32, Table 7): 100%
- remaining activity at 0.2 mg (PKC-α [1]; 200 μg, IMR-32, Table 7, read-out: Relative Intensity (%)): 0%
- Inhibition (%) (PKC-α [1]; 200 μg, Table 9): 100.0%
- Relative Intensity (%) (PKC-α [1]; 200 μg, Table 9): 0.0%
- Band Intensity (PKC-α [1]; [5]): 0.0
- Band Intensity (PKC-α [1]; 300 μg, IMR-32, Table 7): 0.0
- inhibition at 0.3 mg (PKC-α [1]; 300 μg, IMR-32, Table 7): 100%
- remaining activity at 0.3 mg (PKC-α [1]; 300 μg, IMR-32, Table 7, read-out: Relative Intensity (%)): 0%
- Inhibition (%) (PKC-α [1]; 300 μg, Table 9): 100.0%
- Relative Intensity (%) (PKC-α [1]; 300 μg, Table 9): 0.0%
- Band Intensity (PKC-α [1]; [6]): 0.0

Substance: Ac-KDAQNLIGISI-NH2 [PRE 4, Ac-KDAQNLIGISI-NH2]
- effect on fluorescent antibody binding to PKC-α (PKC-α [2]): decrease in antibody binding
- effect on fluorescent antibody binding to PKCepsilon (PKCepsilon): not with PKCdelta, epsilon or zeta
- inhibition at 150 µM (PKC-α [3]; Experiment 1): 6.15%
- inhibition at 150 µM (PKC-α [3]; Experiment 2): 28.9%
- inhibition at 150 µM (PKC-α [3]; Experiment 3): 40.1%
- inhibition at 300 µM (PKC-α [3]; Experiment 1): 9.76%
- inhibition at 300 µM (PKC-α [3]; Experiment 2): 40.7%
- inhibition at 300 µM (PKC-α [3]; Experiment 3): 35.5%
- inhibition at 600 µM (PKC-α [3]; Experiment 1): 16.4%
- inhibition at 600 µM (PKC-α [3]; Experiment 2): 53.5%
- inhibition at 600 µM (PKC-α [3]; Experiment 3): 41.6%
- effect on antibody binding to PKC-βII (PKC-βII): some cross-reactivity
- inhibition at 0.1 mg (PKC-βII; 100 μg): 29%
- remaining activity at 0.1 mg (PKC-βII; 100 μg): 69.5%
- Band Intensity (PKC-βII; 100 μg): 69.58
- inhibition at 0.2 mg (PKC-βII; 200 μg): 100%
- remaining activity at 0.2 mg (PKC-βII; 200 μg): 0%
- Band Intensity (PKC-βII; 200 μg): 0.0
- inhibition at 0.3 mg (PKC-βII; 300 μg): 100%
- remaining activity at 0.3 mg (PKC-βII; 300 μg): 0%
- Band Intensity (PKC-βII; 300 μg): 0.0
- inhibition at 0.1 mg (PKC-α [1]; 100 μg, Table 9): 89.4%
- remaining activity at 0.1 mg (PKC-α [1]; 100 μg, Table 9, read-out: Relative Intensity (%)): 10.6%
- Band Intensity (PKC-α [1]; [4]): 32.2
- inhibition at 0.2 mg (PKC-α [1]; 200 μg, Table 9): 99.5%
- remaining activity at 0.2 mg (PKC-α [1]; 200 μg, Table 9, read-out: Relative Intensity (%)): 0.5%
- Band Intensity (PKC-α [1]; [5]): 1.5
- inhibition at 0.3 mg (PKC-α [1]; 300 μg, Table 9): 100%
- remaining activity at 0.3 mg (PKC-α [1]; 300 μg, Table 9, read-out: Relative Intensity (%)): 0%
- Band Intensity (PKC-α [1]; [6]): 0.0
